Earlier results, collected in patent publication US20180346745A1, “WATER-BASED INK COMPOSITION FOR INK JET RECORDING AND COLORING MATERIAL LIQUID” (Seiko Epson Corporation, priority 2017, published 2018).

Details: value defined by OECD Test Guideline 107

Row | log P (water-octanol partition coefficient) | SMILES
1 | 1.32 | CCCCCCC(O)CO (centres unmarked) [1,2-octane diol]
2 | 0.56 | CCCCOCCOCCO [butyl diglycol]
3 | 0.83 | CCCCCOCC(O)CO (centres unmarked) [3-pentyloxy-1,2-propanediol]
4 | 0.61 | CCCOCC(C)O (centres unmarked) [propylene glycol monopropyl ether]
5 | 1.14 | CCCCOCC(C)O (centres unmarked) [propylene glycol monobutyl ether]
